Assay results published in PubChem BioAssay (NCI).
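Five concentrations, 48 hours, 96-well plates. GI50 marks 50% less growth. TGI is the concentration that stops growth completely.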

How the values were obtained:
Assay in all cases: NCI anticancer screen, dose series, 48 h
[1] = test system: OVCAR-5 ovarian
[2] = test system: BT-549 breast
[3] = test system: U251 CNS
[4] = test system: RPMI-8226 leukemia
[5] = test system: KM12 colon
[6] = test system: IGROV1 ovarian
[7] = test system: OVCAR-8 ovarian
[8] = test system: A549 NSCLC
[9] = test system: HCC-2998 colon
[10] = test system: HOP-92 NSCLC

Row | Compound | TGI [1] [µM] | TGI [2] [µM] | TGI [3] [µM] | TGI [4] [µM] | TGI [5] [µM] | TGI [6] [µM] | TGI [7] [µM] | TGI [8] [µM] | TGI [9] [µM] | TGI [10] [µM] | GI50 [2] [µM] | GI50 [10] [µM] | GI50 [4] [µM] | GI50 [5] [µM] | GI50 [8] [µM] | GI50 [1] [µM] | GI50 [3] [µM] | GI50 [6] [µM] | GI50 [7] [µM] | GI50 [9] [µM]
1 | CN(C)CCSc1cc(-c2ccccc2)c2ccccc2n1 | 26.2 | 24.8 | 22.5 | > 100 | 29 | 25.5 | 58.5 | 28.5 |  |  |  |  |  |  |  |  |  |  |  | 
2 | C=CCN1CCC23c4c5ccc(O)c4OC2C(=NN=C2CCC4(O)C6Cc7ccc(O)c8c7C4(CCN6CC=C)C2O8)CCC3(O)C1C5 (centres undefined) | > 100 |  | 34.9 | > 100 | 42.4 | > 100 | 61.7 | 42.8 | 43.2 | 39.9 |  |  |  |  |  |  |  |  |  | 
3 | Cn1cc(-c2csc(-c3c[nH]c4ccc(Br)cc34)n2)c2cnccc21 |  | > 100 |  | 4.8 | 5.48 |  |  | 11.5 |  | 8.37 | 26.3 | 2.98 | 2.13 | 2.33 | 2.81 |  |  |  |  | 
4 | CCN(CC)CCSc1c2ccccc2nc2c(OC)ccc(OC)c12 | 48.2 |  | 49.4 |  | 16.8 | 51.4 | 12 | 50.1 | > 36 | 7.57 |  |  |  |  |  |  |  |  |  | 
5 | COC(=O)c1cc2c(s1)-c1nccc3c1c(nc1ccccc13)C2=O | > 100 | > 100 | > 100 |  | > 100 | > 100 | 48.4 | > 100 |  |  | > 100 |  |  | 69.4 | > 100 | > 100 | 50.6 | 28.8 | 19.1 | 
6 | C[Si](C)(C)/C(I)=C/CO | 69 |  | 36.7 | 40.7 | 60.8 | > 100 | 86.5 | 76.3 |  | 54.5 |  |  |  |  |  |  |  |  |  | 
7 | CCOC(=O)/C=C/c1ccc(C#Cc2ccccc2)cc1 | > 100 |  | > 100 | > 100 | > 100 |  | > 100 | > 100 | > 100 | > 100 |  | > 100 | 54.5 | > 100 | 72.2 | > 100 | > 100 |  | > 100 | > 100
8 | CCCCCCCN=C(N)c1ccc(N2CCN(c3ccc(C(N)=NCCCCCCC)cc3)CC2)cc1 | 29.3 |  | 9.34 | > 100 | > 100 |  | 7.34 | 15 | 0.163 | > 100 |  | 0.463 | 0.785 | > 100 | 0.26 | 0.849 | 1.45 |  | 0.376 | 0.0231
9 | CC12CCC3c4ccc(O)cc4CCC3C1C/C(=N\O)C2O (centres undefined) | > 100 | > 100 | > 100 | > 100 | > 100 | > 100 | > 100 | > 100 |  | > 100 |  |  |  |  |  |  |  |  |  | 
10 | O=C(Nc1ccc(Cl)c(C(F)(F)F)c1)c1ccc(NC2=C(Cl)C(=O)N(Cc3ccccc3)C2=O)cc1 |  | 5.78 | 5.23 | 6.58 | 47.3 | 3.92 | > 100 | 34.8 |  | 14.7 | 2.28 | 4.34 | 2.56 | 20.3 | 17 |  | 2.15 | 1.59 | 3.66 | 
